Test results taken from patent US7658941B2, “Warming and nonirritating lubricant compositions and method of comparing irritation” (Johnson & Johnson Consumer Companies, Inc., priority 2002, dated 2010).

Legend:
[1] = Generation of warmth by mixing equal quantity with water; format: physicochemical; conditions: for Actual Temperature (° F.) / Rise in Temperature (° F.) (Expected Minus Actual): 20 ml mixed with 20 ml of water for two minutes
Protocol: The temperature of the product and that of water were recorded before water was added to the product. After the addition of water the mixture was mixed for two minutes and the actual temperature was recorded. Glycerin, Propylene Glycol and Honey are the ingredients in Composition 1. It is clear from Table 1 that when mixed with water the temperature of the mixture rises by 9.0° F for Glycerin, 13.5° F. for Propylene Glycol, 17.0° F. for Polyethylene Glycol 400 and 12.5° F. for composition Example 1 of this invention.
Calculated Rise in Temperature: In order to determine the expected rise in temperature from each composition, the percentage of each component in such composition was multiplied by the temperature increase generated by such component alone to obtain its expected contribution to the temperature increase. These values were added together to calculate the total expected temperature rise. These values were then compared with the actual temperature rise generated by each composition. For example, the calculated rise in temperature generated by the “K-Y Warming®”, composition in the table above was found as follows and compared with the actual temperature rise to determine the unexpectedly higher generation of warmth of the composition:
Compositions 10, 11 and 12 were tested in accordance with the following procedure to determine the extent to which said compositions generate warmth upon mixture with water. Data was generated by mixing 20 ml of each composition with 20 ml of water. The temperature of the composition and that of water were recorded before water was added to the composition After the addition of water the contents were mixed for two minutes and the actual temperature was recorded.

[2] = system: epithelial cells derived from human skin; format: cell-based
Protocol: The method designated as EpiDerm™ Skin Model assay uses the epithelial cells derived from human skin as target cells and is commercially available from the MatTek Corporation. […] The test materials are applied directly to the epithelial cell culture surface. […] The toxicity of the test material is evaluated on the basis of relative tissue viability vs time. The actual Tissue Viability is determined by NAD(P)H-dependent microsomal enzyme reduction of MTT in control and test article treated cultures. The negative control used in this assay was deionized water and the positive control was Triton X-100. The exposed cell cultures were incubated for 4, 8, 16 and 24 hours and assayed for reduction of MTT. […] Relative irritation in this assay is expressed by the percent survival rate of epiderm cells over a period of 24 hours. Products with higher relative survival rates are less toxic or less irritating while the ones with lower survival rates are more toxic or irritating.
The data is plotted as % Viable Cells vs the Exposure Time ranging from 4 to 24 hours.

Molecule	Actual Temperature (° F.) [1] [° F.]	Rise in Temperature (° F.) (Expected Minus Actual) [1]	expected contribution of component to the temperature increase ([1]; in K-Y Warming (Composition 1))	expected contribution of component to the temperature increase ([1]; in Composition 10)	% viable cells [2] [%]
OCC(O)CO [Glycerin]	79.0	9.0	4.05	–	–
CCCCCCCCCCCCCC(=O)OC(C)C [Isopropyl Myristate]	75.2	0.7	–	–	–
CC(O)CO (stereo not drawn) [Propylene Glycol]	85.2	13.5	6.75	5.13	–
Polysorbate 60	83.1	10.6	–	–	–
Triton X-100	–	–	–	–	22.4
